According to patent US11535595B2, “Isoquinoline sulfonyl chloride acid addition salts and method of manufacture thereof” (D. WESTERN THERAPEUTICS INSTITUTE, INC., priority 2018, dated 2022):

## Cl.O=S(=O)(Cl)c1ccc2cnccc2c1
  melting point: 102 °C (dec.)

## c1ccc(CSc2ccc3cnccc3c2)cc1 [compound (4), 6-(benzylthio)isoquinoline]
  melting point: 80 °C
